According to ChEMBL document CHEMBL1129111, “Neuroprotective (+) 3S, 4S cannabinoids with modified 5-side chain” (Bioorg Med Chem Lett, 1996):

Experiments:
[1] = biological target: Glutamate NMDA receptor (Rattus norvegicus) (UniProt P35439+Q00959+Q00960+Q00961+Q62645+Q8VHN2+Q9R1M7); assay: Compound was tested for its ability to inhibit [3H]- MK-801 binding to NMDA receptor in rat forebrain membranes at concentration of 100 uM; assay type: cell membranes; details: Membrane
Glutamate NMDA receptor = assay: Compound was tested for its ability to displace [3H]- MK-801 binding to NMDA receptor in rat forebrain membranes.; assay type: cell membranes
Rattus norvegicus [2] = species on record: Rattus norvegicus; assay: Compound was tested for neuronal cell toxicity in cortical neuron cell cultures extracted from fetal rat brains at concentration of 10 uM; assay type: functional, Brain
Rattus norvegicus [3] = species on record: Rattus norvegicus; assay: Compound was tested for the protection of neurons against NMDA toxicity at concentration of 10 uM; assay type: functional
Rattus norvegicus [4] = species on record: Rattus norvegicus; assay: Compound was tested for neuronal cell toxicity in cortical neuron cell cultures extracted from fetal rat brains at concentration of 20 uM; assay type: functional, Brain

| Compound | inhibition [1] [%] | IC50 (Glutamate NMDA receptor) [µM] | Morbidity (Rattus norvegicus [2]) [%] | Protection (Rattus norvegicus [3]) [%] | Morbidity (Rattus norvegicus [4]) [%] |
| --- | --- | --- | --- | --- | --- |
| CCCCCCC(C)(C)c1cc(O)c2c(c1)OC(C)(C)C1CC=C(CO)C[C@H]21 (some centres undefined) | 90 | 10 | 25 | 63 |  |
| CCCC(C)(C)c1cc(O)c2c(c1)OC(C)(C)C1CC=C(CO)C[C@H]21 (some centres undefined) | 80 | 30 | 0 | 36 | 0 |
| CC(C)(C)c1cc(O)c2c(c1)OC(C)(C)C1CC=C(CO)C[C@H]21 (some centres undefined) | 83 | 30 | 15 | 24 | 36 |
